Reference: patent publication US8748435B2, “Pyrazolo pyrimidine derivatives” (Novartis AG, priority 2011, dated 2014)
Structures can show the parent of a compound that is named as a salt.

Key:
[1] = molecular target: T1, human GPR4 (Homo sapiens (Human), UniProt P46093); experiment: Cell-based assay for human GPR4 activity (pH-induced cAMP formation, HTRF, HeLa cells); conditions: HeLa cells stably expressing human GPR4, pH-induced cAMP
Experimental: b) Cell-Based Assay for Human GPR4 Activity
(§1) HeLa cells stably expressing human GPR4 were established by transfecting the cells with a construct containing the human GPR4 coding sequence. The cells were grown in Dulbecco's Modified Eagle Medium (DMEM)/HAM's tissue culture medium F12 (HAM's F12) supplemented with 10% fetal calf serum (FCS), 100 u/ml penicillin, 100 μg/ml streptomycin and 400 μg/ml G418 and 10 mM Hepes pH 8.0. pH-induced formation of cAMP was determined using the homogeneous time resolved fluorescence (HTRF) technology as provided by CisBio Inc. The cells were seeded in 384-well plates and cultured for 24 hours at 37° C., 5% CO2 before performing the assay. Medium was removed and 10 μl buffer A (Hepes buffered saline (HBS), 10 mM Hepes, pH 8, 2 mM 3-Isobutyl-1-methylxanthin (IBMX)) was added. For compound testing, buffer A with 2× concentrated compounds was used. Cells were incubated for 15 min at room temperature. 10 μl buffer B (HBS, 30 mM Hepes, specific pH) was added to reach the appropriate final pH for stimulation (see below) and incubation was continued for 15 min at room temperature. […] HBS: 130 mM NaCl, 0.9 mM NaH2 PO4, 5.4 mM KCl, 0.8 mM MgSO4, CaCl2 1.8 mM, 25 mM glucose, 10-30 mM Hepes. Adjustment of HBS buffers:
(§2) Compounds were diluted from fresh stock solutions at 10 mM in DMSO to 2 mM and then used for serial dilutions in DMSO.

[2] = molecular target: rat GPR4 (Rattus norvegicus (Rat), UniProt Q4KLH9); experiment: Rat GPR4 cAMP assay; format: cell-based; conditions: read-out: r cAMP IC50
Experimental: as §1, §2
(§3) In a similar manner, assays for the mouse (m) and rat (r) GPR4 receptors have been established.

[3] = molecular target: mouse GPR4 (Mus musculus (Mouse), UniProt Q8BUD0); experiment: Mouse GPR4 cAMP assay; format: cell-based
Experimental: as §1, §2, §3

[4] = molecular target: Human H3 (Homo sapiens (Human), UniProt Q9Y5N1); experiment: Human H3 binding assay (SPA, [3H]-R-alpha-Methylhistamine); conditions: 3 nM [3H]-R-alpha-Methylhistamine
Experimental: c) Human H3 Binding Assay
The Scintillation Proximity Binding Assay (SPA) assay was performed in a final volume of 50 μL per well in a 384-well polystyrene plate.
The final concentration of the radioligand was 3 nM. • 20 μL of a beads (PVT-WGA type A) and membranes mixed suspension in assay buffer, in order to get a final concentration of 10 μg/well of membranes and 200 μg/well of beads. As an example, 1471 μL membranes (Conc.: 5.1 mg/mL) and 1500 μL of bead suspension (Conc.: 100 mg/mL) are diluted to a final volume of 15 mL of assay buffer.
The plates were sealed and shaken at room temperature, then allowed to stand at room temperature for at least 1 hour. The plates were counted using a Perkin Elmer TopCount reader, each well being counted for 1 minute.

[5] = molecular target: T1, human GPR4; experiment: Human GPR4 binding assay ([3H]4 radioligand, membranes of 300.19 cells expressing human GPR4); conditions: radioligand [3H]4 (example 39), membranes of 300.19 cells expressing human GPR4
Experimental: a) Human GPR4 Binding Assay
Cells were grown in T175 flasks to a density of about 1×10^6 cells/mL in growth medium. The cells were harvested by centrifugation (3000 rpm for 30 minutes at 4° C.) and the pellet resuspended in ice cold buffer A (20 mM HEPES pH 7.8, 10 mM EDTA, 100 mM NaCl, 1 tab/40 mL protease inhibitor complete). […] The homogenate was centrifuged at 18000 rpm for 50 min at 4° C. and the membrane protein pellet resuspended in cold buffer A using the Polytron (2×20 seconds). The protein concentration is determined using the Bio Rad Protein Assay and human IgG as standard. The volume of the membrane protein suspension is adjusted to a final concentration of about 2 mg protein/mL. The suspension is then once again homogenized (Polytron) on ice at 25000 rpm for 20 seconds before being aliquoted and stored at −80° C.
Radio Ligand Binding Assay: Serial dilutions of compounds (stock in 10 mM DMSO) are prepared by first diluting the compounds in DMSO followed by a 1:50 dilution into assay buffer (10 mM HEPES, pH 8.0, 100 mM NaCl, 5 mM MgCl2, 1 mM CaCl2, 0.5% fatty acid-free BSA, 0.05% Tween-20). […] The desired amount of membranes (20 μg/well) is diluted with assay buffer. […] 100 μL of the membrane-suspension is added and the plate stirred for 60 minutes. […] The filter plate is washed 5 times with ice-cold wash buffer, dried and sealed at the bottom. Then 20 μL of Microscint 40 is added into each well and the top of the plate is sealed. Finally the plate is counted for 2 min/well in a TopCount NXT instrument (Packard Instruments). The data are analyzed using the GraphPad Prism™ software.

[6] = tested on: CFA-induced hyperalgesia; experiment: Established rat hyperalgesia model (CFA); format: in vivo; conditions: gavage
Experimental: f) Established Rat Hyperalgesia Model
Naïve withdrawal thresholds of both hind paws were determined by using an increasing pressure stimulus placed onto the dorsal surface of each paw using an analgesymeter. Delayed inflammatory pain was then induced by intra-plantar injection of 25 μl of complete Freund's adjuvant (CFA) into one hindpaw with the contralateral paw acting as the control. […] One hour later, paw withdrawal thresholds were re-measured on both the ipsilateral (CFA-injected) and contralateral (uninjected) paw; measurements were repeated at 3 hrs and 6 hrs post dosing. The reversal of hyperalgesia was calculated using the following formula: Reversal (%)=100×(postdose ipsilateral threshold−predose ipsilateral threshold) (naïve ipsilateral threshold−predose ipsilateral threshold).

rat GPR4, sequence (Q4KLH9 whole entry): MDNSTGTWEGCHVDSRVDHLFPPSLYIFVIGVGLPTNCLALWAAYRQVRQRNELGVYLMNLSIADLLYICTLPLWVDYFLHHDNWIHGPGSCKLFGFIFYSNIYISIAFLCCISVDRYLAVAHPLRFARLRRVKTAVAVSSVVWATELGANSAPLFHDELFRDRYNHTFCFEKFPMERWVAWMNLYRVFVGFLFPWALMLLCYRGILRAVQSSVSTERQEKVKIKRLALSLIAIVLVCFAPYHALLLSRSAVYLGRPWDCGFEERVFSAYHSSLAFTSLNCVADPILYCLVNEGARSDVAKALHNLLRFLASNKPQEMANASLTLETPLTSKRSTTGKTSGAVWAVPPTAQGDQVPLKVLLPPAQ
T1 sequence (P46093 whole entry): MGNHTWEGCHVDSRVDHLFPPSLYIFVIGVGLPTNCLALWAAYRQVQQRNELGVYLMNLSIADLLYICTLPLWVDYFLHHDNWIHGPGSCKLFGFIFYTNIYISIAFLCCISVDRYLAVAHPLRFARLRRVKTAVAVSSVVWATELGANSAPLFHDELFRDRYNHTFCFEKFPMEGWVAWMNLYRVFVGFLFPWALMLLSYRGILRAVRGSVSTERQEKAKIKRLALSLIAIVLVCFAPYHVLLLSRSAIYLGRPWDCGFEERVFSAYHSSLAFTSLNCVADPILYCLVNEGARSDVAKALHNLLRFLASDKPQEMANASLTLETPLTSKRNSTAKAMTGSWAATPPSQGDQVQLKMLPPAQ
mouse GPR4, sequence (Q8BUD0 whole entry): as the sequence (Q4KLH9 whole entry) above, with W8G, R51H, T339S counted along it
Human H3, sequence (Q9Y5N1 whole entry): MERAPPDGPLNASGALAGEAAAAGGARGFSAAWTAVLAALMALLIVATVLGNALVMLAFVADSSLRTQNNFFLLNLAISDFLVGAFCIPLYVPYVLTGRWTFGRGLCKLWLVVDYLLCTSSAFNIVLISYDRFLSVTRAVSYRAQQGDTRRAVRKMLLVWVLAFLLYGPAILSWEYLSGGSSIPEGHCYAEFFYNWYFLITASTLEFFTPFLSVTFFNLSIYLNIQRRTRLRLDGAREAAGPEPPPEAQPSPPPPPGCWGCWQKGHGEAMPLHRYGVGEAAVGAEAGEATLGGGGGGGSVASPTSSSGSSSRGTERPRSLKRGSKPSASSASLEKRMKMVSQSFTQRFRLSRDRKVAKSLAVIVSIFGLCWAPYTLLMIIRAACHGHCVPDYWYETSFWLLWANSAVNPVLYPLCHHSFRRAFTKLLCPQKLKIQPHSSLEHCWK

| IC50 [1] | IC50 [2] | IC50 [3] | IC50 [4] | IC50 [5] | SMILES | also measured |
| --- | --- | --- | --- | --- | --- | --- |
| 0.079 µM | 1.5 µM | 0.366 µM | > 30 µM | – | CCc1nn2c(C)cc(C)nc2c1Cc1ccc(C(=O)NCC2CCNCC2)cc1 [Example 20, 4-(2-Ethyl-5,7-dimethyl-pyrazolo[1,5-a]pyrimidin-3-ylmethyl)-N-piperidin-4-ylmethyl-benzamide] | – |
| 0.029 µM | 0.497 µM | 0.384 µM | > 30 µM | 0.026 µM | CCc1nn2c(C)cc(C)nc2c1Cc1ccc(-n2cc(CN3CCC(N)CC3)cn2)cc1 [Example 30, 1-{1-[4-(2-Ethyl-5,7-dimethyl-pyrazolo[1,5-a]pyrimidin-3-ylmethyl)-phenyl]-1H-pyrazol-4-ylmethyl}-piperidin-4-ylamine] | – |
| 0.046 µM | 2.79 µM | 0.499 µM | > 30 µM | 0.038 µM | CCc1nn2c(C)cc(C)nc2c1Cc1ccc(/C=C/CN2CCN(C(=O)CN)CC2)cc1 [Example 11, 2-Amino-1-(4-{(E)-3-[4-(2-ethyl-5,7-dimethyl-pyrazolo[1,5-a]pyrimidin-3-ylmethyl)-phenyl]-allyl}-piperazin-1-yl)-ethanone dihydrochloride] | – |
| 0.019 µM | 0.491 µM | 0.128 µM | – | 0.024 µM | CCc1nn2c(C)cc(C)nc2c1Cc1ccc(/C=C/CC2(O)CCN(C[C@@H](O)CO)CC2)cc1 [Example 6, (R)-3-(4-{(E)-3-[4-(2-Ethyl-5,7-dimethyl-pyrazolo[1,5-a]pyrimidin-3-ylmethyl)-phenyl]-allyl}-4-hydroxy-piperidin-1-yl)-propane-1,2-diol] | – |
| 0.061 µM | 1.33 µM | 0.255 µM | > 30 µM | – | CCc1nn2c(C)cc(C)nc2c1Cc1ccc(-n2cc(CN3CCN[C@@H](CO)C3)cn2)cc1 [Example 32, ((R)-4-{1-[4-(2-Ethyl-5,7-dimethyl-pyrazolo[1,5-a]pyrimidin-3-ylmethyl)-phenyl]-1H-pyrazol-4-ylmethyl}-piperazin-2-yl)-methanol] | – |

Second part, the compound before the results:

| SMILES | IC50 [1] | IC50 [2] | IC50 [3] | IC50 [4] | IC50 [5] | also measured |
| --- | --- | --- | --- | --- | --- | --- |
| CCc1nn2c(C)cc(C)nc2c1Cc1ccc(-c2nnc(C3CCN(C(=O)CNC)CC3)o2)cc1 [Example 37, 1-(4-{5-[4-(2-Ethyl-5,7-dimethyl-pyrazolo[1,5-a]pyrimidin-3-ylmethyl)-phenyl]-[1,3,4]oxadiazol-2-yl}-piperidin-1-yl)-2-methylamino-ethanone] | 0.04 µM | – | – | – | – | – |
| CCc1nn2c(C)cc(C)nc2c1Cc1ccc(-n2cc(CN3CCNCC3)nn2)cc1 [Example 33, 2-Ethyl-5,7-dimethyl-3-[4-(4-piperazin-1-ylmethyl-[1,2,3]triazol-1-yl)-benzyl]-pyrazolo[1,5-a]pyrimidine] | 0.031 µM | 0.616 µM | 0.872 µM | > 10 µM | 0.038 µM | – |
| O=C(O)Cc1ccccc1Nc1c(Cl)cccc1Cl [diclofenac, reference compound] | – | – | – | – | – | % reversal of hyperalgesia ([6]; 30 mg/kg, 1 h): 58%; % reversal of hyperalgesia ([6]; 30 mg/kg, 3 h): 60%; % reversal of hyperalgesia ([6]; 30 mg/kg, 6 h): 30% |
| CCc1nc2c(C)cc(C)nc2n1Cc1ccc(/C=C/CN2CCN(C(C)C)CC2)cc1 [Example 40, 2-Ethyl-3-{4-[(E)-3-(4-isopropyl-piperazin-1-yl)-propenyl]-benzyl}-5,7-dimethyl-3H-imidazo[4,5-b]pyridine, reference compound] | – | – | – | – | – | % reversal of hyperalgesia ([6]; 3 mg/kg, 1 h): 23%; % reversal of hyperalgesia ([6]; 3 mg/kg, 3 h): 11%; % reversal of hyperalgesia ([6]; 3 mg/kg, 6 h): 0%; % reversal of hyperalgesia ([6]; 10 mg/kg, 1 h): 48%; % reversal of hyperalgesia ([6]; 10 mg/kg, 3 h): 40%; % reversal of hyperalgesia ([6]; 10 mg/kg, 6 h): 0%; % reversal of hyperalgesia ([6]; 30 mg/kg, 1 h): 55%; % reversal of hyperalgesia ([6]; 30 mg/kg, 3 h): 45%; % reversal of hyperalgesia ([6]; 30 mg/kg, 6 h): 8% |
| CCc1nn2c(C)cc(C)nc2c1Cc1ccc(OCC2CCNCC2)cc1 [Example 21, 2-Ethyl-5,7-dimethyl-3-[4-(piperidin-4-ylmethoxy)-benzyl]-pyrazolo[1,5-a]pyrimidine hydrochloride] | 0.012 µM | 0.489 µM | 0.096 µM | 25 µM | – | – |
